# Earlier results, collected in patent US20150290251A1, “USE OF EGGSHELL MEMBRANE FORMULATIONS TO ALLEVIATE JOINT PAIN” (U.S. NUTRACEUTICALS, LLC d/b/a Valensa International, priority 2009, published 2015).
# What was measured:
# [1] = compared with alpha-tocopherol
# NO, PGE-2 and TNF-Alpha = conditions: induced uveitis; suppression of NO, PGE-2 and TNF-Alpha by directly blocking NO synthase activity
# C-Reactive Protein (CRP) = conditions: human subjects with high risk levels of CRP; three months of treatment
# [2] = tested on: cellular membrane lipid peroxidation
# lens epithelial cells = conditions: in vitro lens epithelial cells; umol/L concentrations
# [3] = human trials; 4 mgs/day; compared to untreated subjects
structure (smiles),measurement,setting,value
"CC1=C(/C=C/C(C)=C/C=C/C(C)=C/C=C/C=C(C)/C=C/C=C(C)/C=C/C2=C(C)C(=O)C(O)CC2(C)C)C(C)(C)CC(O)C1=O (stereo not drawn) [Astaxanthin, 3,3′-dihydroxy-β, β-carotene-4, 4′dione]",ability to quench singlet oxygen relative to alpha-tocopherol,[1],over five hundred times
same,ocular anti-inflammatory activity,"NO, PGE-2 and TNF-Alpha",dose dependent ocular anti-inflammatory activity
same,patients whose serum CRP levels dropped below the risk level,C-Reactive Protein (CRP),43 % of patients
same,effect on pro-oxidant activity of Vioxx,[2],completely negates
same,suppression of UVB induced lipid peroxidative mediated cell damage,lens epithelial cells,dramatically suppresses
same,prevention of joint pain following strenuous knee exercise,[3],completely prevented
